# According to patent publication US20240238268A1, “TREATMENTS AND METHODS FOR TREATING ALZHEIMER'S DISEASE” (Board of Supervisors of Louisiana State University and …, priority 2021, published 2024):
# What was measured:
# Assay type in all cases: in vivo, mouse
# [1] = test system: C57 mice; assay: Neurovascular coupling: microvessel diameter, two-photon laser scanning microscopy, C57 mice; conditions: 10 mg/kg, 7 days, IP
# [2] = test system: NOTCH1; assay: NOTCH1 protein level in brain, capillary-based immunoassay; conditions: aged C57 female mice; 10 mg/kg, IP, 7 days
# Experimental: NOTCH1 protein level in cortex, FIG. 13A, and hippocampus, FIG. 13B, was decreased in aged 3xTg-AD female mice v. male counterparts. Treatment with specific PRMT4 specific inhibitor (TP-064, 30 mg/kg, 7 days, IP) or AAV knockdown of PRMT4 enhanced NOTCH1 protein level in cortex, […], and hippocampus, […], in aged 3xTg-AD female mice. Relative NOTCH1 protein (˜110 kDa) level was measured by capillary-based immunoassay and normalized to total protein. * p<0.05 v. control male mice evaluated by unpaired t-test in FIGS. 13A and 13B. * p<0.05 compared to C57, #p<0.05 compared to 3xTg-AD+TP-064, $p<0.05 compared to 3xTg-AD+AAV, evaluated by one-way ANOVA with Tukey's post-hoc analyses in FIGS. 13C and 13D.
# (§1) FIGS. 16A-16G show NOTCH1 inhibition (via crenigacestat) decreased ZO-1 and occluding and AAV knockdown of PRMT4 enhanced ZO-1 and occludin. […] C57 female mice. FIGS. 16B and 16C show crenigacestat (10 mg/kg, IP, 7 days) reduced NOTCH1 (110 kDa) protein level in the cortex and hippocampus of aged C57 female mice. AAV knockdown of PRMT4 increased NOTCH1 protein level. FIGS. 16D-16G show ZO-1 (220 kDa), and occludin (60 kDa) tight junctional proteins were decreased in the cortex and hippocampus in presence of NOTCH1 inhibitor in C57. PRMT4-AAV increased the expression of ZO-1 and occludin in aged 3xTg-AD female mice. Protein level was measured by capillary-based immunoassay and normalized to total protein. * p<0.05 compared to C57, #p<0.05 compared to 3xTg-AD, $p<0.05 compared to 3xTg-AD+AAV as evaluated by one-way ANOVA with Tukey's post-hoc analyses.
# Capillary-phoresis immunoassay via ProteinSimple®: Quantification of all protein targets was achieved using Simple Western analysis in a Jess™ apparatus per the manufacturer's protocol (ProteinSimple, Bio-techne, Minneapolis, MN). […] Following homogenization and centrifugation (10,000×g, 5 min, 4° C.), protein concentration was determined in tissue protein supernatant samples using DC Protein Assay (Cat. No. 5000112, Bio-Rad Laboratories, Hercules, California) according to manufacturer instructions. […] Antibody diluent (ProteinSimple, Bio-techne, Minneapolis, MN) was used for all antibody dilutions as follows: PRMT4 (1:50, RRID: AB_2068436), PRMT6 (1:100, Cell Signaling Technology cat. 14641), eNOS (1:200, RRID: AB_10850618), nNOS (1:100, RRID: AB_2152488), iNOS (1:100, RRID: AB_10000625), DDAH2 (1:50, RRID: AB_2640442) Antibodies were detected using HRP-conjugated secondary anti-rabbit, and -mouse. Relative protein levels were calculated by measuring the area under the peak of a chemiluminescent chromatogram and normalized to total capillary chemiluminescence for a given sample. […]
# [3] = test system: ZO-1; assay: ZO-1 tight junction protein level in brain, capillary-based immunoassay; conditions: C57 mice; 10 mg/kg, IP, 7 days
# Experimental: as §1
# (§2) Capillary-phoresis immunoassay via ProteinSimple®: Quantification of all protein targets was achieved using Simple Western analysis in a Jess™ apparatus per the manufacturer's protocol (ProteinSimple, Bio-techne, Minneapolis, MN). […] Following homogenization and centrifugation (10,000×g, 5 min, 4° C.), protein concentration was determined in tissue protein supernatant samples using DC Protein Assay (Cat. No. 5000112, Bio-Rad Laboratories, Hercules, California) according to manufacturer instructions. […]
# [4] = test system: occludin; assay: Occludin tight junction protein level in brain, capillary-based immunoassay; conditions: C57 mice; 10 mg/kg, IP, 7 days
# Experimental: as §1, §2
smiles,measurement,setting,value
C[C@H](NC(=O)CCC(F)(F)F)C(=O)N[C@@H]1C(=O)N(CCO)c2ncccc2-c2ccccc21 [Crenigacestat],microvessel diameter,[1],decrease
same,NOTCH1 protein level in cortex,[2],reduced
same,NOTCH1 protein level in hippocampus,[2],reduced
same,ZO-1 protein level in cortex,[3],decreased
same,ZO-1 protein level in hippocampus,[3],decreased
same,occludin protein level in cortex,[4],decreased
same,occludin protein level in hippocampus,[4],decreased
